Source: ChEMBL document CHEMBL3804786, “Novel 1,3-thiazolidin-4-one derivatives as promising anti-Candida agents endowed with anti-oxidant and chelating properties” (Eur J Med Chem, 2016)
In brackets after ≈: the same amount, converted by molar mass.

Tests used:
Staphylococcus aureus = assay: Antibacterial activity against Staphylococcus aureus clinical isolate after 18 to 22 hrs by broth microdilution method; assay type: functional
Staphylococcus warneri = assay: Antibacterial activity against Staphylococcus warneri clinical isolate after 18 to 22 hrs by broth microdilution method; assay type: functional
Enterococcus faecalis = assay: Antibacterial activity against Streptococcus faecalis clinical isolate after 18 to 22 hrs by broth microdilution method; assay type: functional
Escherichia coli = assay: Antibacterial activity against Escherichia coli after clinical isolate 18 to 22 hrs by broth microdilution method; assay type: functional
Proteus mirabilis = assay: Antibacterial activity against Proteus mirabilis clinical isolate after 18 to 22 hrs by broth microdilution method; assay type: functional
Enterobacter sp. = assay: Antibacterial activity against Enterobacter spp. clinical isolate after 18 to 22 hrs by broth microdilution method; assay type: functional
Klebsiella oxytoca = assay: Antibacterial activity against Klebsiella oxytoca clinical isolate after 18 to 22 hrs by broth microdilution method; assay type: functional
Candida albicans = assay: Antifungal activity against Candida albicans clinical isolate after 24 hrs by broth microdilution method; assay type: functional
Nakaseomyces glabratus = assay: Antifungal activity against Candida glabrata clinical isolate after 24 hrs by broth microdilution method; assay type: functional
Candida tropicalis = assay: Antifungal activity against Candida tropicalis clinical isolate after 24 hrs by broth microdilution method; assay type: functional
Pichia kudriavzevii = assay: Antifungal activity against Candida krusei clinical isolate after 24 hrs by broth microdilution method; assay type: functional
Candida parapsilosis = assay: Antifungal activity against Candida parapsilosis clinical isolate after 24 hrs by broth microdilution method; assay type: functional; details: Lodderomyces parapsilosis
[Candida] sake = Antifungal activity against Candida sake clinical isolate after 24 hrs by broth microdilution method; assay type: functional; details: Fermentozyma sake
[1] = Cytotoxicity against human Hep2 cells assessed as cell survival at 0.05 ug/ml after 24 hrs by trypan blue exclusion assay; assay type: cell-based, HEp-2; details: read-out: Survival
[2] = Cytotoxicity against human Hep2 cells assessed as cell survival at 0.5 ug/ml after 24 hrs by trypan blue exclusion assay; assay type: cell-based, HEp-2; details: read-out: Survival
[3] = Cytotoxicity against human Hep2 cells assessed as cell survival at 5 ug/ml after 24 hrs by trypan blue exclusion assay; assay type: cell-based, HEp-2; details: read-out: Survival
[4] = Cytotoxicity against human Hep2 cells assessed as cell survival at 10 ug/ml after 24 hrs by trypan blue exclusion assay; assay type: cell-based, HEp-2; details: read-out: Survival
[5] = Cytotoxicity against human Hep2 cells assessed as cell survival at 50 ug/ml after 24 hrs by trypan blue exclusion assay; assay type: cell-based, HEp-2; details: read-out: Survival
[6] = Cytotoxicity against human Hep2 cells assessed as reduction in cell viability after 24 hrs by trypan blue exclusion assay; assay type: cell-based, HEp-2
[7] = Antioxidant activity of the compound after 90 mins by phosphomolybdenum assay; assay type: physicochemical
[8] = Antioxidant activity of the compound after 30 mins by FRAP assay; assay type: physicochemical
[9] = Antioxidant activity of the compound after 30 mins by CUPRAC method; assay type: physicochemical
[10] = Antioxidant activity assessed as DPPH radical scavenging activity after 30 mins under dark conditions; assay type: physicochemical
[11] = Antioxidant activity assessed as ABTS radical scavenging activity after 30 mins under dark conditions; assay type: physicochemical
[12] = Metal chelating activity of the compound assessed as ferrous ion complex formation after 10 mins; assay type: physicochemical
[13] = system: Streptococcus sp. (viridans group); assay: Antibacterial activity against Streptococcus alpha-hemolyticus clinical isolate after 18 to 22 hrs by broth microdilution method

SMILES | MIC (Staphylococcus aureus) [µg/mL] | MIC (Staphylococcus warneri) [µg/mL] | MIC (Enterococcus faecalis) [µg/mL] | MIC (Escherichia coli) [µg/mL] | MIC (Proteus mirabilis) [µg/mL] | MIC (Enterobacter sp.) [µg/mL] | MIC (Klebsiella oxytoca) [µg/mL] | MIC (Candida albicans) [µg/mL] | MIC (Nakaseomyces glabratus) [µg/mL] | MIC (Candida tropicalis) [µg/mL] | MIC (Pichia kudriavzevii) [µg/mL] | MIC (Candida parapsilosis) [µg/mL] | MIC ([Candida] sake) [µg/mL] | viability at 24 h, 0.05 ug/ml [1] [%] | viability at 24 h, 0.5 ug/ml [2] [%] | viability at 24 h, 5 ug/ml [3] [%] | viability at 24 h, 10 ug/ml [4] [%] | viability at 24 h, 50 ug/ml [5] [%] | CC50 at 24 h [6] [µg/mL] | EC50 [7] [mM] | also measured
O=C1CS/C(=N\N=C2CCCC2)N1Cc1ccccc1F | > 256 | > 256 | > 256 | > 256 | > 256 | > 256 | > 256 | 2 (≈ 6.55 µM) | 2 (≈ 6.55 µM) | 2 (≈ 6.55 µM) | 8 (≈ 26.2 µM) | 2 (≈ 6.55 µM) | 2 (≈ 6.55 µM) | 82 | 69 | 52 | 37 | 0 | 11 (≈ 36 µM) | 0.7 | EC50 [8]: 5.63 mM; EC50 [9]: 2.37 mM; IC50 [10]: > 5 mM; IC50 [11]: 12.4 mM; IC50 [12]: > 5 mM; MIC [13]: > 256 µg/mL
CC(C)=N/N=C1\SCC(=O)N1Cc1cccc([N+](=O)[O-])c1 | > 256 | > 256 | > 256 | > 256 | > 256 | > 256 | > 256 | 2 (≈ 6.53 µM) | 2 (≈ 6.53 µM) | 2 (≈ 6.53 µM) | 2 (≈ 6.53 µM) | 16 (≈ 52.2 µM) | 2 (≈ 6.53 µM) | 79 | 68 | 51 | 0 | 0 | 5 (≈ 16.3 µM) | 1.24 | EC50 [8]: 5.29 mM; EC50 [9]: 2.35 mM; IC50 [10]: > 5 mM; IC50 [11]: 19.4 mM; IC50 [12]: > 5 mM; MIC [13]: > 256 µg/mL
C/C(=N\N=C1/SCC(=O)N1Cc1ccccc1F)c1cccs1 | > 256 | > 256 | > 256 | > 256 | > 256 | > 256 | > 256 | 2 (≈ 5.76 µM) | 4 (≈ 11.5 µM) | 2 (≈ 5.76 µM) | 4 (≈ 11.5 µM) | 4 (≈ 11.5 µM) | 2 (≈ 5.76 µM) | 91 | 80 | 62 | 41 | 0 | 15 (≈ 43.2 µM) | 1.26 | EC50 [8]: 2.13 mM; EC50 [9]: 2.4 mM; IC50 [10]: > 5 mM; IC50 [11]: 15.7 mM; IC50 [12]: 3.84 mM; MIC [13]: > 256 µg/mL
